The values below come from US9023844B2, “Heterocyclylpyri (mi) dinylpyrazole as fungicidals” (Bayer Intellectual Property GmbH, priority 2011, dated 2015).

Read-outs that look alike come from different tables or passages of the source.

As usually defined, the LogP is a log measure of how a compound divides between an organic and an aqueous phase. Read a high LogP as a more lipophilic compound.

Series [1] is described as follows: Determination of log P values by HPLC on a reverse phase column (C18), EEC-Directive 79/831 Annex V.A8 (Methods A, B, C). To be noted: for chromatographic logP: reverse phase C18 HPLC column. It counts as physicochemical. In a few lines:
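Three C18 chromatographic methods following EEC-Directive 79/831 Annex V.A8 gave the logP values. Method C (UPLC, 2.1 mm column) ran at 40 °C and 0.8 mL/min with a 3.25 min 10–95% acetonitrile gradient. Methods A and B both ran at 55 °C and 2.0 mL/min, with gradients of 10–95% in 4.25 min and 5–95% in 1.70 min.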

For a further series, the system named is Sphaerotheca fuliginea. The series is described as follows: Example A: Sphaerotheca test (cucumber) / preventive. The format is in vivo.
For the next series, the system named is Uromyces appendiculatus. The series is described as follows: Example B: Uromyces test (beans) / preventive. It counts as in vivo. As to conditions: in vivo.
Another series concerns Leptosphaeria nodorum. The series is described as follows: Example C: Leptosphaeria test (wheat) / preventive. It counts as in vivo.
Another series deals with Pyrenophora teres. The series is described as follows: Example D: Pyrenophora test (barley) / preventive. The format is in vivo.
The next series deals with Pyricularia oryzae. It counts as in vivo.
Another series concerns Phytophthora infestans. The format is in vivo.
The subject of series [2] is DON/Acetyl-DON production by Fusarium graminearum. The series is described as follows: microbe, parasite or virus in culture. To be noted: at 50 μM; for inhibition at 50 µM: Fusarium graminearum, read-out: Inhibition of DON/AcDON in %. The format is cell-based.
Series [3] relates to Fusarium graminearum. The series is described as follows: microbe, parasite or virus in culture. The format is cell-based. As to conditions: for Growth inhibition of Fusarium graminearum in %: at 50 μM; for inhibition at 50 µM: Fusarium graminearum, read-out: Growth inhibition of Fusarium graminearum in %.
The test system of the next series is Puccinia recondita. The series is described as follows: Example E: Puccinia test (wheat) / preventive. As to conditions: in vivo. It counts as in vivo.
Another series deals with Septoria tritici. The series is described as follows: Example J: Septoria tritici test (wheat) / preventive. It counts as in vivo. To be noted: in vivo.
The subject of series [4] is Fusarium nivale (var. majus). The series is described as follows: Example K: Fusarium nivale (var. majus) test (wheat) / preventive. The format is in vivo. To be noted: 500 ppm of active ingredient, preventive spray, evaluated 5 days after inoculation. The protocol: After the spray coating has been dried, the plants are slightly injured by using a sandblast and afterwards they are sprayed with a conidia suspension of Fusarium nivale (var. majus).
The test is evaluated 5 days after the inoculation.

Series [5] relates to Fusarium graminearum. It counts as in vivo. As to conditions: in vivo.
The next series deals with Plasmopara viticola. The series is described as follows: Example H: Plasmopara test (grapevines) / preventive. The format is in vivo. To be noted: in vivo.
The test system of another series is Venturia inaequalis. The series is described as follows: Example I: Venturia test (apples) / preventive. To be noted: 100 ppm of active ingredient, preventive spray, evaluated 10 days after inoculation.
Where [6] appears, read: Method B (HPLC, reverse phase C18).
Setting [7] is: pH 2.7, values in the synthesis examples, HPLC, reverse phase C18, read-out: log P (pH 2.7).
The mark [8] stands for this setting: 500 ppm of active ingredient, cucumber, preventive spray, evaluated 7 days after inoculation.
Setting [9] is: 500 ppm of active ingredient, barley, preventive spray, evaluated 7-9 days after inoculation.
Setting [10] is: 500 ppm of active ingredient, rice, preventive spray, evaluated 7 days after inoculation.
The mark [11] stands for this setting: 100 ppm of active ingredient, tomatoes, preventive spray, evaluated 3 days after inoculation.
[12] abbreviates: Method C (HPLC, reverse phase C18).

Procedure for Venturia inaequalis: After the spray coating has dried on, the plants are inoculated with an aqueous conidia suspension of the causal agent of apple scab (Venturia inaequalis) and then remain for 1 day in an incubation cabinet at approximately 20° C. and a relative atmospheric humidity of 100%.
The plants are then placed in a greenhouse at approximately 21° C. and a relative atmospheric humidity of approximately 90%.
The test is evaluated 10 days after the inoculation.

Consider `CC(=O)Nc1cc(-c2c(-c3ccc(F)cc3)nn3c2OCCC3)ccn1` [Example 2], for which, in series [1] (setting [6]), the LogP is on record as 1.22. Also, the efficacy in the series on Sphaerotheca fuliginea (in vivo) is 100%; in the series with Uromyces appendiculatus, 74%; with Leptosphaeria nodorum (in vivo) it was 88%; in the series with Pyrenophora teres (in vivo), 100%; in the series with Pyricularia oryzae (in vivo) it was 90%; with Phytophthora infestans (in vivo), 92%. In addition, the “Inhibition of DON/AcDON in %” value in series [2] is listed as 100%. In the series with Fusarium graminearum [3], the “Growth inhibition of Fusarium graminearum in %” value (from here on “Growth inhibition … in %”) is on record as 57%.
Consider `CCC(C)C(=O)Nc1cc(-c2c(-c3ccc(F)cc3)nn3c2OCCC3)ccn1` (stereo not shown) [Example 24], for which the LogP in series [1] (setting [6]) turned out to be 1.82. Also, the efficacy came to 98% with Sphaerotheca fuliginea (in vivo); 94% in the series on Uromyces appendiculatus; 95% in the series with Leptosphaeria nodorum (in vivo); 95% with Pyrenophora teres (in vivo); 100% in the series with Puccinia recondita; 94% with Pyricularia oryzae (in vivo). For the same molecule, the efficacy in the series on Septoria tritici is listed as 100%; in series [4], 100%; with Fusarium graminearum [5], 90%. In addition, the “Inhibition of DON/AcDON in %” value in series [2] is 94%. The “Growth inhibition … in %” value in the series with Fusarium graminearum [3] was 91%.
Molecule `CC(C)CC(=O)Nc1cc(-c2c(-c3ccccc3)nn3c2OCCC3)ccn1` [Example 11] displayed a LogP in series [1] (setting [6]) of 1.66. The efficacy with Sphaerotheca fuliginea (in vivo) is recorded as 100%; in the series on Uromyces appendiculatus, 94%; with Leptosphaeria nodorum (in vivo), 100%; with Pyrenophora teres (in vivo) it was 100%; with Puccinia recondita, 100%; with Pyricularia oryzae (in vivo), 94%. The efficacy in the series on Plasmopara viticola turned out to be 86%; in the series on Septoria tritici, 70%; in [4], 100%; in the series with Fusarium graminearum [5] it was 100%; in the series with Venturia inaequalis, 100%.
Take `CC(=O)Nc1cc(-c2c(-c3ccccc3)nn3c2NCCC3)ccn1` [Example 55, N-[4-(2-phenyl-4,5,6,7-tetrahydropyrazolo[1,5-a]pyrimidin-3-yl)pyridin-2-yl]acetamide]: the chromatographic logP is 1.13 in series [1] (Method C (HPLC, reverse phase C18), read-out: LogP) and 1.13 in series [1] (setting [7]). Besides, the efficacy with Sphaerotheca fuliginea (setting [8]) is on record as 88%; with Pyrenophora teres (setting [9]) it was 90%; in the series with Pyricularia oryzae (setting [10]) it was 70%; in the series with Phytophthora infestans (setting [11]), 91%; with Venturia inaequalis, 93%. Moreover, the inhibition at 50 µM (in series [2]; in the series with Fusarium graminearum [3]) was 100% each time.
Turning to `C[Si]1(C)COc2c(-c3ccnc(NC(=O)C4CC4)c3)c(-c3ccc(F)cc3)nn2C1` [Example 81], the LogP in [1] (setting [12]) was found to be 2.18. The efficacy in the series on Sphaerotheca fuliginea (in vivo) is on record as 98%; in the series with Uromyces appendiculatus, 94%; in the series on Leptosphaeria nodorum (in vivo), 75%; in the series with Pyrenophora teres (in vivo), 90%; with Puccinia recondita, 100%; in the series with Pyricularia oryzae (in vivo), 95%. Also, the efficacy in the series with Plasmopara viticola came out at 100%; with Septoria tritici, 88%; in series [4] it was 100%; with Fusarium graminearum [5], 100%; with Venturia inaequalis, 99%.
In series [1] (setting [12]), `CCC(=O)Nc1cc(-c2c(-c3cccs3)nn3c2OC[Si](C)(C)C3)ccn1` [Example 82] yielded a LogP of 1.81. Also, the efficacy with Pyrenophora teres (in vivo) worked out at 95%; in the series with Puccinia recondita it was 70%; in the series on Pyricularia oryzae (in vivo), 70%; in the series on Phytophthora infestans (in vivo) it was 85%; with Plasmopara viticola, 100%; in the series on Venturia inaequalis, 94%. The “Inhibition of DON/AcDON in %” value in series [2] was found to be 100%. Besides, the “Growth inhibition … in %” value in the series with Fusarium graminearum [3] was found to be 100%.
`CCC(=O)Nc1cc(-c2c(-c3ccc(F)cc3)nn3cccnc23)ccn1` [Example 79] yielded a LogP in [1] (setting [12]) of 1.91. Moreover, the efficacy is on record as 80% in the series with Sphaerotheca fuliginea (in vivo); 100% in the series on Pyrenophora teres (in vivo); 95% in the series on Phytophthora infestans (in vivo); 88% with Plasmopara viticola; 96% in the series with Venturia inaequalis.
In the case of `O=C(Nc1cc(-c2c(-c3ccccc3)nn3c2OCCC3)ccn1)C1CCOCC1` [Example 14], in series [1] (setting [6]), the LogP came to 1.22. For the same molecule, the efficacy in the series on Sphaerotheca fuliginea (in vivo) stood at 100%; in the series with Uromyces appendiculatus it was 94%; in the series with Leptosphaeria nodorum (in vivo) it was 95%; in the series with Pyrenophora teres (in vivo), 95%; in the series on Puccinia recondita, 100%; in the series on Pyricularia oryzae (in vivo) it was 94%. Further, the efficacy was found to be 100% in the series on Septoria tritici, 100% in series [4] and 86% with Fusarium graminearum [5]. For the same molecule, the “Inhibition of DON/AcDON in %” value in [2] is on record as 100%. For the same molecule, the “Growth inhibition … in %” value with Fusarium graminearum [3] is 95%.
In [1] (setting [6]), `O=C(CC(F)(F)F)Nc1cc(-c2c(-c3ccccc3)nn3c2OCCC3)ccn1` [Example 17] registered a LogP of 1.98. Besides, the efficacy is 94% in the series on Uromyces appendiculatus; 95% in the series on Pyrenophora teres (in vivo); 100% with Puccinia recondita; 94% with Pyricularia oryzae (in vivo); 95% with Phytophthora infestans (in vivo); 100% in the series on Plasmopara viticola. Further, the efficacy (in series [4]; in the series with Venturia inaequalis) was 100% throughout.
In series [1] (setting [12]), `CC(C)C(=O)Nc1cc(-c2c(-c3cccs3)nn3c2OC[Si](C)(C)C3)ccn1` [Example 86] came in with a LogP of 2.28. Besides, the efficacy in the series on Uromyces appendiculatus was determined as 94%; in the series with Pyrenophora teres (in vivo), 90%; in the series with Puccinia recondita, 95%; in the series on Pyricularia oryzae (in vivo), 80%; in the series on Phytophthora infestans (in vivo), 98%; in the series on Plasmopara viticola, 100%. The efficacy in the series with Venturia inaequalis came to 100%. Also, the “Inhibition of DON/AcDON in %” value in [2] stood at 99%. The “Growth inhibition … in %” value with Fusarium graminearum [3] is reported as 100%.
Consider `O=C(Nc1cc(-c2c(-c3ccc(F)cc3)nn3c2OCC3)ccn1)C1CC1` [Example 3, N-{4-[6-(4-fluorophenyl)-2,3-dihydropyrazolo[5,1-b][1,3]oxazol-7-yl]pyridin-2-yl}cyclopropanecarboxamide], for which the chromatographic logP in [1] (Method B (HPLC, reverse phase C18), read-out: LogP) amounted to 1.48; in series [1] (setting [7]), 1.48. Further, the efficacy in the series with Sphaerotheca fuliginea (setting [8]) is reported as 93%; with Leptosphaeria nodorum (500 ppm of active ingredient, wheat, preventive spray, evaluated 7-9 days after inoculation) it was 88%; in the series on Pyrenophora teres (setting [9]), 100%; with Pyricularia oryzae (setting [10]), 95%; in the series with Phytophthora infestans (setting [11]), 92%. In addition, the values for the inhibition at 50 µM (in series [2]; in the series on Fusarium graminearum [3]) were 98% and 57%, respectively.
As for `CC(=O)Nc1cc(-c2c(-c3ccc(F)cc3)nn3c2OC[Si](C)(C)C3)ccn1` [Example 61], in series [1] (setting [12]), the LogP stood at 2.01. The efficacy in the series with Uromyces appendiculatus worked out at 84%; in the series with Leptosphaeria nodorum (in vivo), 78%; with Pyrenophora teres (in vivo), 95%; with Puccinia recondita, 75%; in the series on Pyricularia oryzae (in vivo) it was 70%; in the series on Phytophthora infestans (in vivo), 71%. Further, the efficacy with Plasmopara viticola stood at 100%; with Venturia inaequalis it was 96%.
In the case of `O=C(Nc1cc(-c2c(-c3ccc(F)cc3F)nn3c2OCCC3)ccn1)C1CCOCC1` [Example 43], the LogP in series [1] (setting [6]) was determined as 1.39. The efficacy is 100% with Sphaerotheca fuliginea (in vivo); 92% in the series on Uromyces appendiculatus; 70% with Leptosphaeria nodorum (in vivo); 95% in the series with Pyrenophora teres (in vivo); 100% with Puccinia recondita; 94% in the series with Pyricularia oryzae (in vivo). For the same molecule, the efficacy was found to be 88% in the series on Septoria tritici, 88% in series [4] and 100% in the series on Fusarium graminearum [5]. Moreover, the “Inhibition of DON/AcDON in %” value in series [2] worked out at 100%. Also, the “Growth inhibition … in %” value in the series with Fusarium graminearum [3] worked out at 89%.
Turning to `CC(C)C(=O)Nc1cc(-c2c(-c3ccc(F)cc3)nn3c2OC[Si](C)(C)C3)ccn1` [Example 76], the LogP in series [1] (setting [12]) is given as 2.14. Moreover, the efficacy is reported as 95% in the series on Sphaerotheca fuliginea (in vivo); 94% in the series with Uromyces appendiculatus; 75% in the series with Leptosphaeria nodorum (in vivo); 95% in the series with Pyrenophora teres (in vivo); 95% in the series with Puccinia recondita; 90% with Pyricularia oryzae (in vivo). For the same molecule, the efficacy with Plasmopara viticola turned out to be 100%; in the series with Septoria tritici it was 86%; in series [4], 100%; in the series with Fusarium graminearum [5] it was 86%; in the series on Venturia inaequalis it was 100%.
